Values joined by “and” are separate entries in the source; they are usually repeats but may differ in a detail not shown here. Equal entries are not always repeated. Where two headings read alike, the source gives them in different places. Each block holds one molecule with its values, some of them ahead of it.
What was measured:
HIV-1 (strain LAV) = assay type: cell-based
Source text: It is often desirable to screen a number of racemic mixtures of nucleosides as a preliminary step to determine which warrant further resolution into enantiomerically enriched components and further evaluation of antiviral activity. The ability of nucleosides to inhibit HIV can be measured by various experimental techniques. The technique used herein, and described in detail below, measures the inhibition of viral replication in phytohemagglutinin (PHA) stimulated human peripheral blood mononuclear (PBM) cells infected with HIV-1 (strain LAV). The amount of virus produced is determined by measuring the virus-coded reverse transcriptase enzyme. The amount of enzyme produced is proportional to the amount of virus produced.
A. Three-day-old phytohemagglutinin-stimulated PBM cells (10^6 cells/ml) from hepatitis B and HIV-1 seronegative healthy donors were infected with HIV-1 (strain LAV) at a concentration of about 100 times the 50% tissue culture infectious dose (TICD 50) per ml and cultured in the presence and absence of various concentrations of antiviral compounds.
B. Approximately one hour after infection, the medium, with the compound to be tested (2 times the final concentration in medium) or without compound, was added to the flasks (5 ml; final volume 10 ml). AZT was used as a positive control.
C. The cells were exposed to the virus (about 2×10^5 dpm/ml, as determined by reverse transcriptase assay) and then placed in a CO2 incubator. HIV-1 (strain LAV) was obtained from the Center for Disease Control, Atlanta, Ga. The methods used for culturing the PBM cells, harvesting the virus and determining the reverse transcriptase activity were those described by McDougal et al. (J. Immun. Meth. 76, 171-183, 1985) and Spira et al. (J. Clin. Meth. 25, 97-99, 1987), except that fungizone was not included in the medium (see Schinazi, et al., Antimicrob. Agents Chemother. 32, 1784-1787 (1988); Id., 34:1061-1067 (1990)).
D. On day 6, the cells and supernatant were transferred to a 15 ml tube and centrifuged at about 900 g for 10 minutes. Five ml of supernatant were removed and the virus was concentrated by centrifugation at 40,000 rpm for 30 minutes (Beckman 70.1 Ti rotor). The solubilized virus pellet was processed for determination of the levels of reverse transcriptase. Results are expressed in dpm/ml of sampled supernatant. Virus from smaller volumes of supernatant (1 ml) can also be concentrated by centrifugation prior to solubilization and determination of reverse transcriptase levels.

[1] = system: uninfected human PBM cells
Source text: The cells were counted after 6 days using a hemacytometer and the trypan blue exclusion method, as described by Schinazi et al., Antimicrobial Agents and Chemotherapy, 22(3), 499 (1982).

[2] = CSF/serum ratio in rhesus monkeys; assay type: in vivo; conditions: 1 hour after treatment
HIV-2 = experiment: Antiretroviral activity in different cell systems, HIV-2; assay type: cell-based; conditions: PBMC (ROD2)
Method: Cell lines were obtained from either human donors, AIDS Research and Reference Reagent Program, NIH, Rockville, Md., ATCC, or the Red Cross. The CEM thymidine kinase deficient cells were prepared by sequential passage of CEM cells in the presence of 5-bromo-2′-deoxyuridine.

HIV [3] = experiment: microbe, parasite or virus in culture; assay type: cell-based; conditions: Human immunodeficiency virus 1; MT4 system
[4] = target: T1, HIV-1 reverse transcriptase (RT) (Human immunodeficiency virus type 1 group M subtype B, UniProt P04585); experiment: Inhibition of HIV-1 reverse transcriptase by FTC triphosphate; assay type: biochemical; conditions: sequencing analysis, HIV-RT (C-stops)
T1 construct: HIV-1 reverse transcriptase (RT)
Method: Toxicity and pharmacokinetic studies confirm the usefulness of FTC as an antiviral agent for pharmaceutical administration. FTC and its enantiomers are nontoxic to peripheral human bone marrow cells at concentrations up to 50 µM and other cell lines at concentrations up to 200 μM. FTC-TP is a major intracellular metabolite in PBMC and HepG2 cells.

human PBM cells = experiment: Egress of radiolabeled FTC from human PBM cells; assay type: in vitro ADME; conditions: human PBM cells after 24 h pulse with 10 μM
Method: This study measures the time needed for intracellular levels of triphosphates to decline. Studies were conducted in duplicate. Uninfected cells (2×10^6 ml) were suspended in the appropriate medium supplemented with serum (10 ml per timepoint) and incubated at 37° C. in a 5% CO2 incubator. The radiolabeled FTC concentration was 10 μM. After pulsing the cells with the labeled compound for 24 hours, the cells were thoroughly washed and then replenished with fresh medium without the antiviral drugs (0 hr). At 0, 2, 4, 6, 12, 24, and 48 hours (second incubation time), the cells were removed, and immediately extracted with 60% cold methanol/water. The extract was obtained by centrifugation and removal of the cell pellet. The extracts were lyophilized and then stored at −70° C. Prior to analysis, the material was resuspended in 250 microliters of HPLC buffer and immediately analyzed. Quantitation of intracellular parent drug and metabolic derivatives was conducted by HPLC, using either a Micromeritics or Hewlett-Packard model 1090 PHLC system with an anion exchange Partisil 10 SAX column (Whatman, Inc.), at a flow rate of 1 ml/min, 1 kpsi pressure, with UV detection at 262 nm. The mobile phase consisted of deionized water (A), 2 mM NaH2PO4/16 mM NaOAc (pH=6.6) (B), 15 mM NaH2PO4/120.2 mM NaOAc (pH=6.6) (C), and 100 mM NaH2PO4/800 mM NaOAc (pH=6.6) (D). […]

HIV [5] = conditions: compared with AZT; cited from earlier work
[6] = system: AZT-resistant HIV isolates; conditions: in vitro, isolates from patients treated with AZT for longer than 36 weeks; cited from earlier work
[7] = human PBM cells, HIV-1 strain LAV, Table 3, read-out: Antiviral EC50
[8] = enantiomers resolved by HPLC (Example 4), Table 4, read-out: EC50
[9] = PBM cells, procedure similar to Example 6, read-out: EC50

SMILES: Nc1nc(=O)n([C@H]2CS[C@@H](CO)O2)cc1Cl [DLS-023]
EC50 (HIV-1 (strain LAV); [7]): 38.7 µM

SMILES: O=c1[nH]c(=O)n([C@H]2CS[C@@H](CO)O2)cc1F [DLS-027]
EC50 (HIV-1 (strain LAV); [7]): > 100 µM
IC50 [1]: > 100 µM

SMILES: Nc1nc(=O)n([C@H]2CS[C@@H](CO)O2)cc1Br [DLS-021]
EC50 (HIV-1 (strain LAV); [7]): 77.4 µM

SMILES: Cc1cn([C@H]2CS[C@@H](CO)O2)c(=O)nc1N [DLS-011]
EC50 (HIV-1 (strain LAV); [7]): > 10 µM

SMILES: O=c1[nH]c(=O)n([C@H]2CS[C@@H](CO)O2)cc1I [DLS-029]
EC50 (HIV-1 (strain LAV); [7]): > 100 µM
IC50 [1]: > 100 µM

CSF/Serum Ratio of deaminated metabolite (FTU) ([2]; I.V. FTC 33.3 mg/kg, individual monkeys): 0.024 and 0.032 and 0.052
CSF/Serum Ratio of deaminated metabolite (FTU) ([2]; I.V. FTC 33.3 mg/kg, mean): 0.036
CSF/Serum Ratio of deaminated metabolite (FTU) ([2]; P.O. FTC 33.3 mg/kg, individual monkeys): 0.026 and 0.037 and 0.055
CSF/Serum Ratio of deaminated metabolite (FTU) ([2]; P.O. FTC 33.3 mg/kg, mean): 0.039
SMILES: O=c1[nH]c(=O)n(C2CSC(CO)O2)cc1F (stereo not shown) [FTU]

SMILES: Nc1nc(=O)n([C@H]2CS[C@@H](CO)O2)cc1F [(+)-FTC, (+)-β-D-2-hydroxymethyl-5-(5-fluorocytosin-1-yl)-1,3-oxathiolane]
% Inhibition (Corrected) (HIV-1 (strain LAV); 0.001 μM): 3.8%
DPM/ml (HIV-1 (strain LAV); 0.001 μM): 94,340 DPM/ml
% Inhibition (Corrected) (HIV-1 (strain LAV); 0.005 μM): −10.6%
DPM/ml (HIV-1 (strain LAV); 0.005 μM): 107,430 DPM/ml
% Inhibition (Corrected) (HIV-1 (strain LAV); 0.01 μM): −1.8%
DPM/ml (HIV-1 (strain LAV); 0.01 μM): 99,465 DPM/ml
% Inhibition (Corrected) (HIV-1 (strain LAV); 0.05 μM): 11.8%
DPM/ml (HIV-1 (strain LAV); 0.05 μM): 87,120 DPM/ml
% Inhibition (Corrected) (HIV-1 (strain LAV); 0.1 μM): 12.7%
DPM/ml (HIV-1 (strain LAV); 0.1 μM): 86,340 DPM/ml
% Inhibition (Corrected) (HIV-1 (strain LAV); 0.5 μM): 71.4%
DPM/ml (HIV-1 (strain LAV); 0.5 μM): 33,225 DPM/ml
EC50 (HIV-1 (strain LAV); [8]): 0.28 µM
EC50 (HIV-1 (strain LAV); enantiomers resolved by method of Example 3, FIG. 6, read-out: EC50): 0.84 µM
IC50 [1]: > 100 µM
EC50 (HIV-2): 26 nM

SMILES: Cc1cn([C@H]2C[C@H](N=[N+]=[N-])[C@@H](CO)O2)c(=O)[nH]c1=O [AZT, 3′-azido-3′-deoxythymidine, reference compound]
IC50 (HIV [3]): 90 nM

EC50 (HIV-1 (strain LAV); [9]): 0.0017 µM
SMILES: CCCC(=O)OC[C@@H]1O[C@H](n2cc(F)c(N)nc2=O)CS1 (racemic) [5′-O-butyrate ester of (±)-FTC]

SMILES: O=c1ccn(C2CSC(CO)O2)c(=O)[nH]1 (stereo not shown) [DLS-009]
EC50 (HIV-1 (strain LAV); [7]): > 100 µM
IC50 [1]: > 100 µM

SMILES: O=c1[nH]c(=O)n([C@H]2CS[C@@H](CO)O2)cc1Br [DLS-044]
EC50 (HIV-1 (strain LAV); [7]): > 100 µM
IC50 [1]: > 100 µM

EC50 (HIV-1 (strain LAV); [9]): 0.0028 µM
SMILES: CC(=O)Nc1nc(=O)n(C2CSC(CO)O2)cc1F (racemic) [N′-acetyl derivative of (±)-FTC]

SMILES: Cc1cn(C2CSC(CO)O2)c(=O)[nH]c1=O (stereo not shown) [DLS-010]
EC50 (HIV-1 (strain LAV); [7]): 64.4 µM

SMILES: Nc1nc(=O)n([C@@H]2CS[C@H](CO)O2)cc1C(F)(F)F [DLS-053]
EC50 (HIV-1 (strain LAV); [7]): 60.7 µM

SMILES: O=c1[nH]c(=O)n([C@H]2CS[C@@H](CO)O2)cc1Cl [DLS-028]
EC50 (HIV-1 (strain LAV); [7]): 60.8 µM

SMILES: Nc1nc(=O)n(C2CSC(CO)O2)cc1F (single isomer, unassigned; (-)) [(−)-FTC, (−)-β-L-2-hydroxymethyl-5-(5-fluorocytosin-1-yl)-1,3-oxathiolane]
DPM/ml (HIV-1 (strain LAV); 0.001 μM): 76,275 DPM/ml
DPM/ml (HIV-1 (strain LAV); 0.005 μM): 58,590 DPM/ml
DPM/ml (HIV-1 (strain LAV); 0.01 μM): 75,350 DPM/ml
DPM/ml (HIV-1 (strain LAV); 0.05 μM): 28,890 DPM/ml
DPM/ml (HIV-1 (strain LAV); 0.1 μM): 13,175 DPM/ml
DPM/ml (HIV-1 (strain LAV); 0.5 μM): 9,485 DPM/ml
EC50 (HIV-1 (strain LAV); [8]): 0.02 µM
EC50 (HIV-1 (strain LAV); [7]): 0.008 µM
IC50 [1]: > 100 µM
EC50 (HIV-2): 0.7 nM

SMILES: Nc1nc(=O)n([C@@H]2CS[C@H](COP(=O)(O)OP(=O)(O)OP(=O)(O)O)O2)cc1F (racemic) [FTC-TP]
DNA chain termination [4]: potent DNA chain terminator
intracellular half-life (human PBM cells): approximately 12 hours

SMILES: Nc1nc(=O)n([C@H]2CS[C@@H](CO)O2)cc1I [DLS-026]
EC50 (HIV-1 (strain LAV); [7]): 0.72 µM

SMILES: Nc1ccn(C2CSC(CO)O2)c(=O)n1 (racemic) [(±)-BCH-189, 2-hydroxymethyl-5-(cytosin-1-yl)-1,3-oxathiolane]
activity against HIV (HIV [5]): approximately the same activity against HIV as AZT
inhibition of replication of AZT-resistant HIV isolates [6]: inhibit the replication of AZT-resistant HIV isolates

Reference: patent publication US20090048190A1, “Antiviral activity and resolution of 2-hydroxymethyl-5(5-fluorocytosin-1-yl)-1,3-oxathiolane” (priority 1990, published 2009)
